{"source": "ChEMBL document CHEMBL3132769", "about": "“Fragment growing to retain or alter the selectivity of anchored kinase hinge-binding fragments” (Medchemcomm, 2014)", "key": {"[1]": {"target": "T1, Cytoplasmic tyrosine-protein kinase BMX (Homo sapiens) (UniProt P51813)", "T1 sequence (whole entry)": "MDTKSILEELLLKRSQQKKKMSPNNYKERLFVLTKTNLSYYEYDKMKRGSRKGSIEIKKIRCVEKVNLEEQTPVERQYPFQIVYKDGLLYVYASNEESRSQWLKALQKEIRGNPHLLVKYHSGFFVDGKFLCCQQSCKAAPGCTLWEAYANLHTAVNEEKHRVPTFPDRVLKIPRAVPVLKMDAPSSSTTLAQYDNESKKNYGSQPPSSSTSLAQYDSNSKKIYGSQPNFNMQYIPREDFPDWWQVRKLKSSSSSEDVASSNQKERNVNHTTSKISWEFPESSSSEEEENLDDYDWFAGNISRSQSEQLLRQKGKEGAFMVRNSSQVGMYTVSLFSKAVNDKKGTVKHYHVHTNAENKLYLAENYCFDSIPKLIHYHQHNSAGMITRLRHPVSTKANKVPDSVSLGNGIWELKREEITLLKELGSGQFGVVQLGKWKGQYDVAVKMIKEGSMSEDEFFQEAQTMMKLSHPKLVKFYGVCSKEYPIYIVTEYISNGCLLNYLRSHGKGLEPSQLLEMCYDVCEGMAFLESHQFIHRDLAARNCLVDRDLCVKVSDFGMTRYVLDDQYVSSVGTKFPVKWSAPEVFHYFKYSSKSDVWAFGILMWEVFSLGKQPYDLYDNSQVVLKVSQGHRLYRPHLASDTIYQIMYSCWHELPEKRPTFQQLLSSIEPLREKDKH", "assay": "Inhibition of human full length BMX expressed in baculovirus assessed as substrate phosphorylation using fluorescence-labelled peptides as substrate at 9 uM after 90 mins by microfluidic peptide phosphorylation assay"}, "[2]": {"target": "Platelet-derived growth factor receptor alpha (Homo sapiens) (UniProt P16234)", "sequence (P16234 whole entry, the tested form may be a part)": "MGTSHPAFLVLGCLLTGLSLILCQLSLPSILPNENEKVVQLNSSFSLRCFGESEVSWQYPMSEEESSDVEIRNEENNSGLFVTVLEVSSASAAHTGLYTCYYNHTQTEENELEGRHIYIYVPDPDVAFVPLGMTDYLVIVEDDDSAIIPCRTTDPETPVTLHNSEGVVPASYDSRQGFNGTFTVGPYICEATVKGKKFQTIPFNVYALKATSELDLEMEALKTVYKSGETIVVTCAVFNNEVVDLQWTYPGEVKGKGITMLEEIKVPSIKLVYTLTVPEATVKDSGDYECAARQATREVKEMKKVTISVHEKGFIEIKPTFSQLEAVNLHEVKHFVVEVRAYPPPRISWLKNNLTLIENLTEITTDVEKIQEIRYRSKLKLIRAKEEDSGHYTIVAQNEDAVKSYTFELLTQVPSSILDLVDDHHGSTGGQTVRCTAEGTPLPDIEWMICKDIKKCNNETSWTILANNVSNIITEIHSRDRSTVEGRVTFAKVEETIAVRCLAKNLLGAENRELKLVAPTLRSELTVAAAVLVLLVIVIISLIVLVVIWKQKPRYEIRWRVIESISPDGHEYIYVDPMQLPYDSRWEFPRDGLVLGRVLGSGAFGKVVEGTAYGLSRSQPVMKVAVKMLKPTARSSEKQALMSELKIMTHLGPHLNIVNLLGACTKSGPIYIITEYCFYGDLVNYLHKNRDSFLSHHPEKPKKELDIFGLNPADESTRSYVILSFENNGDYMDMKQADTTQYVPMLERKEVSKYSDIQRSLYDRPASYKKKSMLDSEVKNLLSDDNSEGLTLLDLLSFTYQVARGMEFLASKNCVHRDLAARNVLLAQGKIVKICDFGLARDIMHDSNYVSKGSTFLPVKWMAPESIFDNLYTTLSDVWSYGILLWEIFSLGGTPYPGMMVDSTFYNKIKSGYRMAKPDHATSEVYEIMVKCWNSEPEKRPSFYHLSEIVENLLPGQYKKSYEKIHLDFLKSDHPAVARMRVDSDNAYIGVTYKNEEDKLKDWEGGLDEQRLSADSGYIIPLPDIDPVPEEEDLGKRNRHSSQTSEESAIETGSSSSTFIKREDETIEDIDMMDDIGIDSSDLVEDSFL", "assay": "Inhibition of human PDGFR alpha catalytic domain expressed in baculovirus assessed as substrate phosphorylation using fluorescence-labelled peptides as substrate at 420 uM after 90 mins by microfluidic peptide phosphorylation assay"}, "[3]": {"target": "T2, Serine/threonine-protein kinase BRSK1 (Homo sapiens) (UniProt Q8TDC3)", "T2 sequence (whole entry)": "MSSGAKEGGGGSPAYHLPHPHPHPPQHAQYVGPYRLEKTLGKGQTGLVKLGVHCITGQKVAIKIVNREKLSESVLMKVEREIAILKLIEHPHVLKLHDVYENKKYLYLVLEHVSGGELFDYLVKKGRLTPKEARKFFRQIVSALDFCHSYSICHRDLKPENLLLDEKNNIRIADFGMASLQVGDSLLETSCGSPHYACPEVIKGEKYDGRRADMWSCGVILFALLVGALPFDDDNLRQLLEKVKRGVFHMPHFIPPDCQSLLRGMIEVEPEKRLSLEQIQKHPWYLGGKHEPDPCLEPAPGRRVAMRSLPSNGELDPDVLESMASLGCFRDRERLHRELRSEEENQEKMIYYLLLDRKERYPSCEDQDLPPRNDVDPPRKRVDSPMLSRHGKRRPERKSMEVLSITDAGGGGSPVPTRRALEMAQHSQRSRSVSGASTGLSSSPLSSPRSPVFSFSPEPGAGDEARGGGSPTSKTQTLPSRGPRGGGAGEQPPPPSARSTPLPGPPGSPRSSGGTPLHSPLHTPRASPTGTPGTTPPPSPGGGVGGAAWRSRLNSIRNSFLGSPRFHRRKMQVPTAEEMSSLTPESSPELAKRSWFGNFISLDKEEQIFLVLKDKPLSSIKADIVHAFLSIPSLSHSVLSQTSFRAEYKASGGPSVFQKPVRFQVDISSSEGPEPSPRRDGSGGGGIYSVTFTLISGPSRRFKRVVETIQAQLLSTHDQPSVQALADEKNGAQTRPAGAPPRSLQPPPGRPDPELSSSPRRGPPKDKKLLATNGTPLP", "assay": "Inhibition of human full length BRSK1 expressed in baculovirus assessed as substrate phosphorylation using fluorescence-labelled peptides as substrate at 70 uM after 90 mins by microfluidic peptide phosphorylation assay"}, "[4]": {"target": "T3, MAP kinase-activated protein kinase 5 (Homo sapiens) (UniProt Q8IW41)", "T3 sequence (whole entry)": "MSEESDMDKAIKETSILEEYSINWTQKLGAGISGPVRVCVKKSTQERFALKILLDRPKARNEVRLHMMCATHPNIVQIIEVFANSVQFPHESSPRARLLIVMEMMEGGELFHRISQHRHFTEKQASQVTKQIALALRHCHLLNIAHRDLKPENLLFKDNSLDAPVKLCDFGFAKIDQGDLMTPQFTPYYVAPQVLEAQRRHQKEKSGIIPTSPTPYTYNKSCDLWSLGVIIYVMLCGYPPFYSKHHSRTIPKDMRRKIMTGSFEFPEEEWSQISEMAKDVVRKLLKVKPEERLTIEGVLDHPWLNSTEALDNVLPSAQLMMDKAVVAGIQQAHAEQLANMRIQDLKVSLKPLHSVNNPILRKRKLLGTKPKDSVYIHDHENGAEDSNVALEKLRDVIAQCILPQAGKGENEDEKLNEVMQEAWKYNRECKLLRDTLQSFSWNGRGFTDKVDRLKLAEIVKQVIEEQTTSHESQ", "assay": "Inhibition of human full length PRAK expressed in baculovirus assessed as substrate phosphorylation using fluorescence-labelled peptides as substrate at 8 uM after 90 mins by microfluidic peptide phosphorylation assay"}, "[5]": {"target": "T1, Cytoplasmic tyrosine-protein kinase BMX (Homo sapiens)", "assay": "Inhibition of human full length BMX expressed in baculovirus assessed as substrate phosphorylation using fluorescence-labelled peptides as substrate at 1000 uM after 90 mins by microfluidic peptide phosphorylation assay"}, "[6]": {"target": "Calcium/calmodulin-dependent protein kinase type II subunit delta (Homo sapiens) (UniProt Q13557)", "sequence (Q13557 whole entry)": "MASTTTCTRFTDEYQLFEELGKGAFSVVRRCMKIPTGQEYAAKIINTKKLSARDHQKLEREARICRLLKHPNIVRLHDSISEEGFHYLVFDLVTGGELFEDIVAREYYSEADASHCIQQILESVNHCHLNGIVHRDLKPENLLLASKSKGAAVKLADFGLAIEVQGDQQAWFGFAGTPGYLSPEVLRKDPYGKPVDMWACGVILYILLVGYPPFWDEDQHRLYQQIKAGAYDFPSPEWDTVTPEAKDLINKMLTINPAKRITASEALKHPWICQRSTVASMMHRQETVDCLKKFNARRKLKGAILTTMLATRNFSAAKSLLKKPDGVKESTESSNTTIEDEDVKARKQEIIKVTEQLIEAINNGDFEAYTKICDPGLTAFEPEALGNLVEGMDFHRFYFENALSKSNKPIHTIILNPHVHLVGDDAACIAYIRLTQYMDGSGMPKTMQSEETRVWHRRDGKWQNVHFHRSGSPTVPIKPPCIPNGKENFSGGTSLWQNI", "assay": "Inhibition of human full length CAMK2D expressed in baculovirus assessed as substrate phosphorylation using fluorescence-labelled peptides as substrate at 1000 uM after 90 mins by microfluidic peptide phosphorylation assay"}, "[7]": {"target": "Protein kinase C gamma type (Homo sapiens) (UniProt P05129)", "assay": "Inhibition of human truncated PKC gamma expressed in baculovirus assessed as substrate phosphorylation using fluorescence-labelled peptides as substrate at 1000 uM after 90 mins by microfluidic peptide phosphorylation assay"}}, "data": [{"smiles": "NCC1CN(c2ncnc3[nH]c4cnccc4c23)CCO1", "note": "(configuration not stated)", "values": [{"measurement": "inhibition", "setting": "[1]", "value": 11, "unit": "%"}]}, {"smiles": "c1nc(N2CCOCC2)c2nc[nH]c2n1", "values": [{"measurement": "inhibition", "setting": "[2]", "value": 32.5, "unit": "%"}]}, {"smiles": "CNCc1ccc(-c2ncnc3[nH]cnc23)cc1", "values": [{"measurement": "inhibition", "setting": "[3]", "value": 29.5, "unit": "%"}]}, {"smiles": "NCC1CCN(c2ncnc3[nH]ccc23)CC1", "values": [{"measurement": "inhibition", "setting": "[4]", "value": 51.5, "unit": "%"}]}, {"smiles": "c1cnc2[nH]ccc2c1", "values": [{"measurement": "inhibition", "setting": "[5]", "value": 22, "unit": "%"}, {"measurement": "inhibition", "setting": "[6]", "value": 37.5, "unit": "%"}, {"measurement": "inhibition", "setting": "[7]", "value": 57, "unit": "%"}]}]}
